In US20040157785A1, “Combination therapy comprising anti-diabetic and anticonvulsant agents” (priority 2000, published 2004):
Like-named read-outs stand apart in the source and are kept apart here.

Columns and labels:
[1] = system: markers of diabetes mellitus; experiment: Summary of the case studies: topiramate in combination with an anti-diabetic agent; format: in vivo, human; details: oral administration in combination with an anti-diabetic agent
[2] = system: patient with Type II diabetes; experiment: Case Study A: topiramate added to insulin (70/30) in a Type II diabetes patient; format: in vivo, human
Experimental: The ability of the compounds of formula I administered in combination with an anti-diabetic agent to treat Type II diabetes mellitus and Syndrome X is based on the following case studies. The patient was a person with a 6 year history of Type II diabetes. For the past four years the patient was being treated with insulin (70/30). At the start of treatment patient's weight was 236 lbs, measured cholesterol was 316 mg/dl and measured glucose was 166 mg/dl. The patient was started on Topiramate for treatment of seizures and titrated to 75 mg a day. […] After 16 months, patient's fasting glucose was 89 mg/dl.

[3] = system: seizures; details: several rodent models of epilepsy; cited from earlier work
[4] = system: simple and complex partial seizures and secondarily generalized seizures; details: adjunctive therapy or monotherapy; cited from earlier work
[5] = system: patient with elevated blood sugars; experiment: Case Study D: topiramate with Amaryl (glimepiride) in a patient with elevated blood sugars; format: in vivo, human
Experimental: The ability of the compounds of formula I administered in combination with an anti-diabetic agent to treat Type II diabetes mellitus and Syndrome X is based on the following case studies. The patient was a person, with a history of elevated blood sugars and a weight of 188 lbs. At the time of initial treatment, patient's blood sugar was 426 mg/dl. Patient was started on topiramate, titrated to 100 mg once a day. The patient was also prescribed […] (glimepiride). After 3 months, patient's blood sugar averaged in the upper 100s, lab sugars measured at 138 mg/dl, cholesterol at 278 mg/dl, triglycerides at 212 mg/dl and HgbA1C at 6.7%. […] Patient weighed 160 lbs. Patient was able to stop taking the […] due to improved sugar control. Due to concerns about weight loss, topiramate was decreased to 100 mg/day. After 21 months, patient's weight was 170 lbs, blood sugars were reported doing well. Lab measured glucose was 115 mg/dl, cholesterol was measured at 236 mg/dl, triglycerides at 106 mg/dl and HgbA1C at 5.7%.

[6] = system: patient with diabetes; experiment: Case Study C: topiramate added to Glucophage, DiaBeta and Rezulin in a diabetes patient; format: in vivo, human
Experimental: The ability of the compounds of formula I administered in combination with an anti-diabetic agent to treat Type II diabetes mellitus and Syndrome X is based on the following case studies. The patient was a person with an 8 year history of diabetes. Prior to treatment, patient's weight was 201 lbs, Hgb A1C was 9.3% and blood sugar was 309 mg/dl. Patient was taking Glucophage (metformin hydrochloride) at four 500 mg tablets/day (2 tablets in the morning, 1 tablet in the afternoon and 1 tablett at night, for a total of 2000 mg/day), DiaBeta (glyburide) at 10 mg twice a day (total of 20 mg/day) and Rezulin (troglitazone) at 200 mg/day. Patient was started on topiramate at 75 mg b.i.d (150 mg/day). […] After 15 months patient's weight was 190 lbs with blood sugars controlled on 100 mg topiramate in the morning, 200 mg topiramate at night (Total of 300 mg/day), DiaBeta at 10 mg twice a day and Rezulin at 200 mg once a day.

[7] = system: patient with Type II diabetes; experiment: Case Study B: topiramate added to Glucotrol (glipizide) in a Type II diabetes patient; format: in vivo, human
Experimental: The ability of the compounds of formula I administered in combination with an anti-diabetic agent to treat Type II diabetes mellitus and Syndrome X is based on the following case studies. The patient was a person with a 5 year history of Type II diabetes. At the start of treatment, patient was taking 40 mg/day Glucotrol (glipizide, a sulfonylurea) and weighed 293 lbs. The patient was titrated on topiramate to 50 mg/day. After 1 month of treatment, patient reported that home measured blood sugars had dropped from a baseline of 300 mg/dl to measured blood sugars of 140 mg/dl. After 2 months, the patient indicated average blood sugar levels of 80-140 mg/dl and weight loss to 272 lbs.

[8] = system: seizures; details: animal model of kindled epilepsy; cited from earlier work
[9] = after 3 months, topiramate 100 mg once a day with Amaryl
[10] = after 3 months, topiramate 100 mg once a day with Amaryl, initial 426 mg/dl
[11] = after 21 months, topiramate 100 mg/day, Amaryl stopped
[12] = after one year, topiramate increased to 200 mg/day

Compound: CC1(C)O[C@@H]2[C@@H](CO[C@@]3(COS(N)(=O)=O)OC(C)(C)O[C@@H]23)O1 [topiramate, 2,3:4,5-bis-O-(1-methylethylidene)-β-D-fructopyranose sulfamate]
- status of markers of diabetes mellitus (blood glucose, glycosylated hemoglobin, triglyceride levels) [1]: consistently improved
- blood sugar (patient indicated) ([2]; after 2 months, topiramate 75 mg a day with insulin (70/30), using the insulin less often): improved significantly
- fasting glucose ([2]; after 16 months, with insulin (70/30), glucose at start 166 mg/dl): 89 mg/dL
- home measured blood sugars ([2]; after 18 months, with insulin (70/30), previously 150 to 160 mg/dl): less than 120 mg/dl
- Hbg A1C ([2]; after one year, topiramate 200 mg b.i.d. with insulin (70/30)): 6.94%
- patient's weight ([2]; after one year, topiramate 200 mg b.i.d. with insulin (70/30), start 236 lbs): 225 lbs
- seizure block [3]: effectively block seizures
- efficacy in treating simple and complex partial seizures and secondarily generalized seizures [4]: effective
- HgbA1C [5, 9]: 6.7%
- cholesterol [5, 9]: 278 mg/dL
- triglycerides [5, 9]: 212 mg/dL
- blood sugar averaged [5, 10]: upper 100s
- lab sugars [5, 10]: 138 mg/dL
- HgbA1C [5, 11]: 5.7%
- blood sugars (reported) [5, 11]: doing well
- cholesterol [5, 11]: 236 mg/dL
- lab measured glucose [5, 11]: 115 mg/dL
- patient's weight [5, 11]: 170 lbs
- triglycerides [5, 11]: 106 mg/dL
- need for Amaryl (sugar control) ([5]; after one year, topiramate 200 mg/day): able to stop taking the Amaryl
- patient weight ([5]; after one year, topiramate 200 mg/day, start 188 lbs): 160 lbs
- cholesterol [5, 12]: 200 mg/dL
- lab measured blood sugars [5, 12]: 141 mg/dL
- triglycerides [5, 12]: 500 mg/dL
- patient's weight ([6]; after 15 months, topiramate 300 mg/day with DiaBeta and Rezulin, prior 201 lbs): 190 lbs
- blood sugars ([6]; after 15 months, topiramate 300 mg/day, DiaBeta 10 mg twice a day, Rezulin 200 mg once a day): controlled
- blood sugars (patient indicated) ([6]; topiramate 75 mg b.i.d (150 mg/day) with Glucophage, DiaBeta, Rezulin, prior blood sugar 309 mg/dl): doing better
- need for Glucophage (sugar control) ([6]; topiramate 150 mg b.i.d (300 mg/day) with DiaBeta and Rezulin): able to stop Glucophage
- home measured blood sugars ([7]; after 1 month, topiramate 50 mg/day with Glucotrol 40 mg/day, baseline 300 mg/dl): 140 mg/dL
- average blood sugar levels ([7]; after 2 months, topiramate 50 mg/day with Glucotrol 40 mg/day): 80 to 140 mg/dL
- weight ([7]; after 2 months, topiramate 50 mg/day with Glucotrol, start 293 lbs): 272 lbs
- seizure block [8]: effectively block seizures
